In ChEMBL document CHEMBL3227969, “Synthesis and biological activity of 8-oxadihydropteridines” (J Med Chem, 1979):

What was measured:
Enterococcus faecalis [1] = experiment: Antibacterial activity against Streptococcus faecalis ATCC 8043; format: organism-based
Dihydrofolate reductase = molecular target: T1, Dihydrofolate reductase (Homo sapiens, UniProt P00374); experiment: Inhibition of dihydrofolate reductase (unknown origin) using dihydrofolic acid as substrate by spectrophotometry
T1 sequence (P00374 whole entry): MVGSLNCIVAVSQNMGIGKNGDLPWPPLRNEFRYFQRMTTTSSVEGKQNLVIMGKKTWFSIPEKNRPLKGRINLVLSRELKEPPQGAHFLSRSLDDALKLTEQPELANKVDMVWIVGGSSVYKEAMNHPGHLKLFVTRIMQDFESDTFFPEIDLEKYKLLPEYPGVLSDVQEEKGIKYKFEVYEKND

Enterococcus faecalis [2] = experiment: Antibacterial activity against Streptococcus faecalis ATCC 8043 at 1 ug/ml; format: organism-based

| SMILES | Activity (Enterococcus faecalis [1]) | IC50 (Dihydrofolate reductase) [µM] | Activity (Enterococcus faecalis [2]) |
| --- | --- | --- | --- |
| Nc1nc(O)c2c(n1)OCC(CCc1ccccc1)=N2 | Toxic | – | – |
| Nc1nc(O)c2c(n1)OCC(c1ccccc1)=N2 | Toxic | 57 | – |
| Nc1nc(N)c2c(n1)OC(c1ccccc1)C(c1ccccc1)=N2 (configuration not stated) | Toxic | – | – |
| CC1=Nc2c(N)nc(N)nc2OC1C (configuration not stated) | Toxic | 903 | – |
| Nc1nc(N)c2c(n1)OCC(c1ccccc1)=N2 | Toxic | 168 | – |
| CC1=Nc2c(O)nc(N)nc2OC1c1ccccc1 (configuration not stated) | Toxic | 740 | – |
| Nc1nc(O)c2c(n1)OCC(CCCCc1ccccc1)=N2 | Toxic | – | – |
| CC1=Nc2c(O)nc(N)nc2OC1 | Toxic | 242 | – |
| Nc1nc(O)c2c(n1)OCC(Cc1ccccc1)=N2 | Toxic | – | – |
| CC1=Nc2c(O)nc(N)nc2OC1C (configuration not stated) | Toxic | 377 | – |
| CC1Oc2nc(N)nc(O)c2N=C1c1ccccc1 (configuration not stated) | Toxic | – | – |
| CN(Cc1cnc2nc(N)nc(N)c2n1)c1ccc(C(=O)N[C@@H](CCC(=O)O)C(=O)O)cc1 [METHOTREXATE] | – | – | Toxic |
| CCCCCC1=Nc2c(O)nc(N)nc2OC1 | Toxic | 11 | – |
| Nc1nc(O)c2c(n1)OCC(CCCc1ccccc1)=N2 | Toxic | – | – |
| Nc1nc(O)c2c(n1)OC(c1ccccc1)C(c1ccccc1)=N2 (configuration not stated) | Toxic | – | – |
